By MIC is commonly meant the lowest concentration that inhibits growth of the organism.

These results are taken from ChEMBL document CHEMBL3421558, “Structure activity relationship of substituted 1,5-naphthyridine analogs of oxabicyclooctane-linked novel bacterial topoisomerase inhibitors as broad-spectrum antibacterial agents (Part-4)” (Bioorg Med Chem Lett, 2015).

Assay type in all cases: functional
Assay [1] relates to Staphylococcus aureus. As to the kind of experiment: Antimicrobial activity against Staphylococcus aureus Smith by micro broth dilution or agar based method. (Dilution methods test growth across graded concentrations, often in twofold steps.)
The subject of assay [2] is Staphylococcus aureus. As to the kind of experiment: Antimicrobial activity against methicillin-resistant Staphylococcus aureus OIT971 by micro broth dilution or agar based method.
Another assay relates to Streptococcus pneumoniae. As to the kind of experiment: Antimicrobial activity against Streptococcus pneumoniae IID553 by micro broth dilution or agar based method. As to conditions: Streptococcus pneumoniae, IID553; read-out: MIC.
In the next assay the test system is Enterococcus faecium. As to the kind of experiment: Antimicrobial activity against VanA expressing vancomycin-resistant Enterococcus faecium by micro broth dilution or agar based method. The settings on record: Enterococcus faecium; read-out: MIC.
The subject of another assay is Escherichia coli. As to the kind of experiment: Antimicrobial activity against Escherichia coli ATCC 25922 by micro broth dilution or agar based method. As to conditions: Escherichia coli, ATCC 25922; read-out: MIC.
A further assay concerns Acinetobacter baumannii. As to the kind of experiment: Antimicrobial activity against Acinetobacter baumannii IID876 by micro broth dilution or agar based method. The settings on record: Acinetobacter baumannii, IID876; read-out: MIC.
The next assay has as its system Pseudomonas aeruginosa. As to the kind of experiment: Antimicrobial activity against Pseudomonas aeruginosa PAO1 by micro broth dilution or agar based method. As to conditions: Pseudomonas aeruginosa, PAO1; read-out: MIC.
The subject of assay [3] is Staphylococcus aureus. As to the kind of experiment: Potency index, ratio of MIC for quinolone-resistant Staphylococcus aureus MS5935 to MIC for quinolone-[…].
The mark [4] stands for this setting: Staphylococcus aureus, Smith, read-out: MIC.

Converted amounts (≈) assume the structure as drawn.

`COc1ccc2nc(N3CCNCC3)c(F)c(CCC34CCC(NCc5ccc6c(n5)NC(=O)CO6)(CC3)CO4)c2n1`: the MIC with Staphylococcus aureus [1] (setting [4]), against Staphylococcus aureus [2], in the assay with Streptococcus pneumoniae, with Enterococcus faecium, with Escherichia coli and with Acinetobacter baumannii was 8 µg/mL (≈ 13.8 µM) in each case. Besides, the MIC in the assay with Pseudomonas aeruginosa is 8 µg/mL (≈ 13.8 µM). In the assay on Staphylococcus aureus [3], the Ratio was <4.

As for `COc1nc2c(CCC34CCC(NCc5ccc6c(n5)NC(=O)CO6)(CC3)CO4)c(F)cnc2cc1F`, the MIC with Staphylococcus aureus [1] (setting [4]) worked out at 0.031 µg/mL (≈ 0.0606 µM); in the assay with Staphylococcus aureus [2], 0.016 µg/mL (≈ 0.0313 µM); with Streptococcus pneumoniae, 0.25 µg/mL (≈ 0.489 µM); in the assay on Enterococcus faecium, 2 µg/mL (≈ 3.91 µM); in the assay with Escherichia coli it was 4 µg/mL (≈ 7.82 µM); in the assay with Acinetobacter baumannii, 1 µg/mL (≈ 1.95 µM). The MIC with Pseudomonas aeruginosa turned out to be 8 µg/mL (≈ 15.6 µM).

As for `COc1cc(C)c2ncc(F)c(CCC34CCC(NCc5ccc6c(n5)NC(=O)CO6)(CC3)CO4)c2n1`, the MIC is 0.016 µg/mL (≈ 0.0315 µM) in the assay with Staphylococcus aureus [1] (setting [4]); 0.008 µg/mL (≈ 0.0158 µM) with Staphylococcus aureus [2]; 0.25 µg/mL (≈ 0.493 µM) in the assay with Streptococcus pneumoniae; 2 µg/mL (≈ 3.94 µM) in the assay with Enterococcus faecium; 4 µg/mL (≈ 7.88 µM) with Escherichia coli; 2 µg/mL (≈ 3.94 µM) in the assay on Acinetobacter baumannii. Further, the MIC with Pseudomonas aeruginosa came to 16 µg/mL (≈ 31.5 µM).

For `O=C1COc2ccc(CNC34CCC(CCc5c(F)cnc6cc(Cl)cnc56)(CC3)OC4)nc2N1`, the MIC with Staphylococcus aureus [1] (setting [4]) was 8 µg/mL (≈ 16.1 µM); with Staphylococcus aureus [2], 8 µg/mL (≈ 16.1 µM); in the assay with Streptococcus pneumoniae it was 32 µg/mL (≈ 64.3 µM); with Enterococcus faecium it was 32 µg/mL (≈ 64.3 µM); in the assay on Escherichia coli, 32 µg/mL (≈ 64.3 µM); in the assay with Acinetobacter baumannii, 32 µg/mL (≈ 64.3 µM). For the same compound, the MIC with Pseudomonas aeruginosa is 32 µg/mL (≈ 64.3 µM).

As to `O=C1COc2ccc(CNC34CCC(CCc5ccnc6cc(C(F)(F)F)cnc56)(CC3)OC4)nc2N1`, the MIC in the assay on Staphylococcus aureus [1] (setting [4]), with Staphylococcus aureus [2], in the assay with Streptococcus pneumoniae, in the assay with Enterococcus faecium, in the assay with Escherichia coli and in the assay with Acinetobacter baumannii was 64 µg/mL (≈ 125 µM) throughout. The MIC in the assay with Pseudomonas aeruginosa came out at 64 µg/mL (≈ 125 µM).

As for `COc1cc2nccc(CCC34CCC(NCc5ccc6c(n5)NC(=O)CO6)(CC3)CO4)c2nc1OC`, the MIC in the assay on Staphylococcus aureus [1] (setting [4]) was determined as 2 µg/mL (≈ 3.96 µM); in the assay with Staphylococcus aureus [2] it was 1 µg/mL (≈ 1.98 µM); in the assay with Streptococcus pneumoniae it was 8 µg/mL (≈ 15.8 µM); with Enterococcus faecium, 8 µg/mL (≈ 15.8 µM); with Escherichia coli it was 8 µg/mL (≈ 15.8 µM); in the assay on Acinetobacter baumannii it was 8 µg/mL (≈ 15.8 µM). For the same compound, the MIC in the assay on Pseudomonas aeruginosa stood at 8 µg/mL (≈ 15.8 µM).

As to `COc1cc2ncc(F)c(CCC34CCC(NCc5ccc6c(n5)NC(=O)CO6)(CC3)CO4)c2nc1OC`, the MIC in the assay on Staphylococcus aureus [1] (setting [4]) turned out to be 0.5 µg/mL (≈ 0.955 µM); with Staphylococcus aureus [2] it was 0.25 µg/mL (≈ 0.477 µM); in the assay on Streptococcus pneumoniae it was 8 µg/mL (≈ 15.3 µM); in the assay on Enterococcus faecium it was 8 µg/mL (≈ 15.3 µM); in the assay on Escherichia coli, 8 µg/mL (≈ 15.3 µM); in the assay on Acinetobacter baumannii, 8 µg/mL (≈ 15.3 µM). For the same compound, in the assay with Pseudomonas aeruginosa, the MIC is 8 µg/mL (≈ 15.3 µM).

`COc1ccc2ncc(OC)c(CCC34CCC(NCc5ccc6c(n5)NC(=O)CO6)(CC3)CO4)c2n1`: the MIC was 0.125 µg/mL (≈ 0.247 µM) in the assay on Staphylococcus aureus [1] (setting [4]); 0.063 µg/mL (≈ 0.125 µM) in the assay with Staphylococcus aureus [2]; 4 µg/mL (≈ 7.91 µM) with Streptococcus pneumoniae; 4 µg/mL (≈ 7.91 µM) with Enterococcus faecium; 16 µg/mL (≈ 31.6 µM) with Escherichia coli; 8 µg/mL (≈ 15.8 µM) with Acinetobacter baumannii. Further, the MIC in the assay with Pseudomonas aeruginosa worked out at 64 µg/mL (≈ 127 µM).

With `COc1cc(OC)c2nccc(CCC34CCC(NCc5ccc6c(n5)NC(=O)CO6)(CC3)CO4)c2n1`, the MIC was found to be 0.5 µg/mL (≈ 0.989 µM) in the assay with Staphylococcus aureus [1] (setting [4]); 0.25 µg/mL (≈ 0.494 µM) with Staphylococcus aureus [2]; 8 µg/mL (≈ 15.8 µM) in the assay on Streptococcus pneumoniae; 8 µg/mL (≈ 15.8 µM) in the assay on Enterococcus faecium; 32 µg/mL (≈ 63.3 µM) with Escherichia coli; 8 µg/mL (≈ 15.8 µM) in the assay with Acinetobacter baumannii. For the same compound, in the assay on Pseudomonas aeruginosa, the MIC was 64 µg/mL (≈ 127 µM).

For `COc1ccc2ncc(C#N)c(CC(O)C34CCC(NCc5ccc6c(n5)NC(=O)CO6)(CC3)CO4)c2n1` (stereo in doubt; 88), the MIC in the assay on Staphylococcus aureus [1] stood at 0.031 µg/mL (≈ 0.06 µM); in the assay with Staphylococcus aureus [2] it was 0.031 µg/mL (≈ 0.06 µM); in the assay with Streptococcus pneumoniae, 0.25 µg/mL (≈ 0.484 µM); in the assay with Enterococcus faecium, 1 µg/mL (≈ 1.94 µM); in the assay on Escherichia coli, 4 µg/mL (≈ 7.74 µM); with Acinetobacter baumannii it was 0.5 µg/mL (≈ 0.968 µM). Besides, the MIC with Pseudomonas aeruginosa was 8 µg/mL (≈ 15.5 µM).

`COc1ccc2ncc(O)c(CCC34CCC(NCc5ccc6c(n5)NC(=O)CO6)(CC3)CO4)c2n1`: the MIC in the assay with Staphylococcus aureus [1] (setting [4]) was 0.031 µg/mL (≈ 0.0631 µM); with Staphylococcus aureus [2], 0.031 µg/mL (≈ 0.0631 µM); in the assay with Streptococcus pneumoniae it was 0.5 µg/mL (≈ 1.02 µM); in the assay on Enterococcus faecium, 2 µg/mL (≈ 4.07 µM); in the assay on Escherichia coli, 4 µg/mL (≈ 8.14 µM); with Acinetobacter baumannii, 2 µg/mL (≈ 4.07 µM). Moreover, in the assay on Pseudomonas aeruginosa, the MIC turned out to be 16 µg/mL (≈ 32.6 µM).

Regarding `CN(C)c1nc2c(CCC34CCC(NCc5ccc6c(n5)NC(=O)CO6)(CC3)CO4)ccnc2cc1C(F)(F)F`, the MIC with Staphylococcus aureus [1] (setting [4]), against Staphylococcus aureus [2], with Streptococcus pneumoniae, in the assay with Enterococcus faecium, with Escherichia coli and with Acinetobacter baumannii was 8 µg/mL (≈ 14.4 µM) in each case. Besides, the MIC with Pseudomonas aeruginosa turned out to be 8 µg/mL (≈ 14.4 µM).

On to `O=C1COc2ccc(CNC34CCC(CCc5c(F)cnc6cc(C(F)(F)F)cnc56)(CC3)OC4)nc2N1`, for which the MIC in the assay with Staphylococcus aureus [1] (setting [4]), in the assay on Staphylococcus aureus [2], in the assay with Streptococcus pneumoniae, in the assay on Enterococcus faecium, with Escherichia coli and in the assay with Acinetobacter baumannii was 16 µg/mL (≈ 30.1 µM) each time. Besides, the MIC in the assay on Pseudomonas aeruginosa is 16 µg/mL (≈ 30.1 µM).
